Results on eight molecules are retold here after patent publication US10722575B2, “Use of 1,3-diphenylprop-2-en-1-one derivatives for treating liver disorders” (GENFIT, priority 2009, dated 2020).

For experiment [1], the system named is human primary hepatic stellate cells (hHSC). As to the kind of experiment: PDGF-BB-induced hHSC proliferation, BrdU incorporation. The conditions noted are these: PDGF-BB 10 ng/ml; for Inhibition of the PDGF-BB-induced hHSC proliferation: BrdU Incorporation: 10 μM. The experiment is classed as cell-based. As for the experimental part: (§1) Compounds were dissolved in dimethyl sulfoxide (DMSO, Fluka cat #41640)
(§2) The human primary hepatic stellate cells (hHSC) (ScienCell) were cultured in STeCM medium (ScienCell cat #5301) that was supplemented with 2% fetal bovine serum (FBS, ScienCell cat #0010), 1% penicillin/streptomycine (ScienCell cat #0503) and stellate cell growth supplement (SteCGS; ScienCell cat #5352). Culture plastics were coated with Poly-L Lysine (Sigma cat # P4707).
hHSC were plated at a density of 1.2×10^4 cells/well into 96-well plates and were cultured overnight at 37° C. and 5% CO2, followed by washing of cells with PBS (Invitrogen cat #14190) and replacing the growth medium with a serum-free and SteCGS-free medium for an additional 24 hours. For PDGF-induced proliferation assay, cells were pre-treated with a compound of General Formula (I) for 1 hour before the addition of PDGF-BB (10 ng/ml; R&D Systems cat #520-BB). Treatments were then continued for additional 20 hours.
Cell proliferation was measured by bromodeoxyuridine (BrdU) incorporation using a BrdU labeling and detection kit (Roche cat #11647229001). BrdU labeling solution was added to cells, followed by incubation for another 4 hours before fixation, addition of nucleases, addition of anti-BrdU-POD and peroxidase substrate. The absorbance at 405 nm (with a reference wavelength at 690 nm) was measured using an ELISA plate reader (Tecan).

Experiment [2] shares this test system. As to the kind of experiment: TGFβ1-induced hHSC activation, gene expression by quantitative PCR. The experiment is classed as cell-based. The conditions noted are these: TGFβ1 1 ng/ml, 24 hours; for Inhibition of the TGFβ1-induced hHSC activation: Col1α1 / Inhibition of the TGFβ1-induced hHSC activation: Col4α1 / Inhibition of the TGFβ1-induced hHSC activation: αSMA: 10 μM; for inhibition at 10 µM: Homo sapiens. The protocol:
as §1, §2
The human primary hepatic stellate cells (hHSC) (ScienCell) were cultured under standard conditions, as described above. For experiments to determine gene expression patterns, hHSC were plated at a density of 7×10^4 cells/well into 24-well plates and were cultured overnight. Next day, culture medium was replaced by serum-free and SteCGS-free medium for an additional 16 hours. Cells were treated with a compound of General Formula (I) in addition to TGFβ1 (1 ng/ml) in a serum-free and SteCGS-free medium for 24 hours.
Total RNA was isolated using Nucleospin® 96 RNA kit (Macherey Nagel) following manufacturer's instructions. 100 ng of total RNA were reverse transcribed in cDNA using M-MLV RT (Moloney Murine Leukemia Virus Reverse Transcriptase) (Invitrogen cat #28025) in presence of RT buffer 1× (Invitrogen), 1 mM DTT (Invitrogen), 0.18 mM dNTPs (Promega), 200 ng pdN6 (Amersham) and 30U of RNase inhibitor (Promega).
Quantitative PCR was then carried out using the CFX96 TOUCH™ Real-Time PCR Detection System (Biorad). Briefly, PCR reactions were performed in 96 well plates on 5 μl of 5× diluted reverse transcription mix using the iQ SYBR Green Supermix kit. The experimental conditions were: 25 μl of volume reaction, 3 mM of MgCl2, and 0.5 μl each of reverse and forward primers (10 pMol).
Expression levels were normalized using the expression of 36B4 gene as reference (sequences SEQ ID NO: 1 and SEQ ID NO: 2 as shown above).
For each gene, the standard curves were drawn by selecting the best points (at least three points) in order to have PCR reaction efficiency close to 100% and a correlation coefficient close to 1. Expression levels were determined using the standard curve equation for both the housekeeping gene and the target gene (taking into account the specific PCR efficiency of each target gene).

Structures are written as SMILES. Marks after values point to notes of the source that are not given here.

With `CSc1ccc(C(=O)C=Cc2cc(C(C)C)c(OCC(=O)O)c(C(C)C)c2)cc1` [Cpd 74 US20070032543, 1-[4-methylthiophenyl]-3-[3,5-diisopropyl-4-carboxymethyloxyphenyl]prop-2-en-one], the “Inhibition of the PDGF-BB-induced hHSC proliferation: BrdU Incorporation” value (from here on “Inhibition … BrdU Incorporation”) in experiment [1] is given as −127% ***. Also, in experiment [2], the “Inhibition of the TGFβ1-induced hHSC activation: Col1α1” value (from here on “Inhibition … Col1α1”) is given as −82% ***, the “Inhibition of the TGFβ1-induced hHSC activation: Col4α1” value (“Inhibition … Col4α1” below) is −85% *** and the “Inhibition of the TGFβ1-induced hHSC activation: αSMA” value (shortened to “Inhibition … αSMA”) is on record as −97% ***.

As for `Cc1cc(C=CC(=O)c2ccc(Oc3ccccc3)cc2)cc(C)c1OC(C)(C)C(=O)O` [Cpd 33 WO2005073184, 1-(4-Phenyloxyphenyl)-3-(4-carboxydimethylmethyloxy-3,5-dimethylphenyl)prop-2-en-1-one], the “Inhibition … BrdU Incorporation” value in experiment [1] is given as −127% ***. Besides, in experiment [2], the “Inhibition … Col1α1” value is −37%, the “Inhibition … Col4α1” value amounted to 12% ^ and the “Inhibition … αSMA” value is on record as −49% ***.

Turning to `CCc1cc(C=CC(=O)c2ccc(C(C)C)cc2)cc(CC)c1OC(C)(C)C(=O)O` [Cpd 56 US20070032543, 1-[4-isopropylphenyl]-3-[3,5-diethyl-4-carboxydimethylmethyloxyphenyl]prop-2-en-1-one], the “Inhibition … BrdU Incorporation” value in experiment [1] is −127% ***. In experiment [2], the “Inhibition … Col1α1” value was −62% **, the “Inhibition … Col4α1” value was −66% *** and the “Inhibition … αSMA” value was −87% ***.

`CCCCCCOc1ccc(C(=O)C=Cc2cc(C)c(OC(C)(C)C(=O)O)c(C)c2)cc1` [Cpd 33 WO2004OO5233, 1-[4-hexyloxyphenyl]-3-[3,5-dimethyl-4-carboxydimethylmethyloxyphenyl]prop-2-en-1-one]: the “Inhibition … BrdU Incorporation” value in experiment [1] worked out at 35%^. Moreover, in experiment [2], the “Inhibition … Col1α1” value was −58% *, the “Inhibition … Col4α1” value is recorded as −73% *** and the “Inhibition … αSMA” value is −71% ***.

The inhibition is the change of the read-out against control, counted positive when it falls. With `CSc1ccc(C(=O)C=Cc2cc(C)c(OCC(=O)O)c(C)c2)cc1` [Cpd 72 US20070032543, 1-[4-methylthiophenyl]-3-[3,5-dimethyl-4-carboxymethyloxyphenyl]prop-2-en-1-one], the inhibition at 10 µM amounted to 126% in experiment [1] (Homo sapiens), 37% in experiment [2] (read-out: Inhibition of the TGFβ1-induced hHSC activation: Col1α1), 51% in experiment [2] (read-out: Inhibition of the TGFβ1-induced hHSC activation: Col4α1) and 74% in experiment [2] (read-out: Inhibition of the TGFβ1-induced hHSC activation: αSMA).

With `Cc1cc(C=CC(=O)c2ccc(Br)cc2)cc(C)c1OC(C)(C)C(=O)O` [Cpd 41 WO2004OO5233, 1-[4-bromophenyl]-3-[3,5-dimethyl-4-carboxydimethylmethyloxyphenyl]prop-2-en-1-one], the “Inhibition … BrdU Incorporation” value in experiment [1] was −34%. In experiment [2], the “Inhibition … Col1α1” value is on record as −28%, the “Inhibition … Col4α1” value is recorded as −32% ** and the “Inhibition … αSMA” value is −2%.

For `Cc1cc(C=CC(=O)c2ccc(Cl)cc2)cc(C)c1OC(C)(C)C(=O)O` [Cpd 17 WO2004OO5233, 1-[4-chlorophenyl]-3-[3,5-dimethyl-4-carboxydimethylmethyloxyphenyl]prop-2-en-1-one], in experiment [1], the “Inhibition … BrdU Incorporation” value is 6%. In experiment [2], the “Inhibition … Col1α1” value is reported as −29%, the “Inhibition … Col4α1” value is −56% *** and the “Inhibition … αSMA” value is recorded as −30% ***.

Take `Cc1cc(C=CC(=O)c2ccc(SC(F)(F)F)cc2)cc(C)c1OC(C)(C)C(=O)O` [Cpd 54 US20070032543, 1-[4-trifluoromethylthiophenyl]3-[3,5-dimethyl-4-carboxydimethymethyoxyphenyl]prop-2-en-1-one]: the “Inhibition … BrdU Incorporation” value in experiment [1] amounted to 12%^. For the same molecule, in experiment [2], the “Inhibition … Col1α1” value was −27%, the “Inhibition … Col4α1” value was −40% *** and the “Inhibition … αSMA” value is −57% ***.
